{
  "source": "paper PMC10066322",
  "about": "(Scientific Reports, 2023)",
  "key": {"PARN level in Hela cells": {"test_system": "PARN level in Hela cells", "experiment": "Western blot of PARN protein level in Hela cells", "type": "cell-based, human", "settings": "50 μM, 2 days", "excerpt": "The blot was blotted against anti-PARN antibody. (b) Quantification of the changes in PARN levels of western blot using GAPDH as loading controls. siPARN and drug treatments were normalized to scramble siRNA and DMSO controls, respectively. siPARN and drug treatment data were compared to scr and DMSO data, respectively. One-way ANOVA, multiple comparisons test. Average ± SD, N = 3 biological replicates, n = 1. […] (d) Quantification of miR-21-5p levels normalized to U1 RNA. One-way ANOVA, multiple comparisons test, average ± SD, N = 3 biological replicates, n = 1. […] One-way ANOVA, multiple comparisons test, average ± SD, N = 3 biological replicates, n = 2. (f) Representative northern blot showing that miR-21-5p levels decreased in TH11, TH15, and TH16 treatments. […] (g) Quantification of miR-21-5p levels normalized to U1 RNA. […] For nothern blot and RT-qPCR quantifications, Scr and DMSO controls were independently set to 1 and used as control for siPARN and drug treatments, respectively. *P < 0.05, **P < 0.005, ***P < 0.001, ****P < 0.0001, n.s. was not indicated. […]\nCells was lysed with 2× lysis buffer (2.5% SDS, 4% BME, protease inhibitor) and was separated on a 4–12% Bis–Tris NuPage gel (ThermoFisher) and transferred to protran membrane (Amer- sham). […] Blot was quantified using ImageJ and normalized to GAPDH levels (GAPDH antibody (0411) HRP) (Santa Cruz Biotechnology, sc-47724 HRP)."}, "[1]": {"test_system": "PARN activity in Hela cells", "experiment": "miR-21-5p levels in Hela cells by northern blotting (PARN inhibition in cells)", "type": "cell-based, human", "settings": "2 days", "procedure": "48 h after transfection/drug treatment, cells were collected for either RNA or protein analysis.\nTotal RNA was extracted from cell lysates using TriZol as per manufacturer’s protocol and DNAse treated. After quantification on Nanodrop, total RNA was separated on an acrylamide 7 M Urea gel. RNA was transferred to a nylon membrane (Nytran SPC, GE Healthcare) using semiwet transfer. After UV/EDC crosslinking, the blot was pre-hybridized and hybridized in PerfectHyb Plus Hybridization Buffer (Sigma Aldrich) at 42 °C. Northern probes have been previously described[11],[48]. After hybridization and washing in 2 × SSC 0.1% SDS wash buffer, blots were exposed to a cassette and imaged on a Typhoon FLA 9500 Phosphoimager. Band intensities were quantified using ImageJ and normalized to the U1 levels under each condition."}, "[2]": {"target": "GCK (germinal center kinase)", "settings": "cited from earlier work"}, "[3]": {"target": "ACK1 (activated CDC42 kinase 1)", "settings": "cited from earlier work"}},
  "data": [
    {"molecule": "Cc1ccc(Nc2ncc3c(n2)N(C)C(=O)N(c2cc(NC(=O)c4cccc(C(F)(F)F)c4)ccc2C)C3)cn1", "note": "[GNF-7]", "values": [
      {"measurement": "PARN level (western blot)", "setting": "PARN level in Hela cells", "value": "do not affect PARN level"},
      {"measurement": "PARN inhibitor in cells", "setting": "[1]; 50 μM", "value": "Yes"},
      {"measurement": "miR-21-5p levels compared to the controls", "setting": "[1]; 50 µM, northern blotting, DMSO control", "value": "~ 35%"},
      {"measurement": "IC50", "setting": "[2]", "value": 8, "unit": "nM"},
      {"measurement": "IC50", "setting": "[3]", "value": 25, "unit": "nM"}
    ]}
  ]
}
